US12447151B2, “Alkyne derivative, preparation method for same, and uses thereof” (ZHEJIANG HISUN PHARMACEUTICAL CO., LTD., priority 2019, dated 2025)

How the values were obtained:
[1] = test system: CT26 mouse colon cancer cell subcutaneously transplanted tumor; assay: Growth inhibition of CT26 mouse colon cancer subcutaneously transplanted tumor model, alone and combined with PD-L1 monoclonal antibody; assay type: in vivo, BALB/c mice; details: 21st day after administration, Example 2 60 mg/kg gavage once a day, Anti-PD-L1 200 μg each i.p. once every 3 days, 4 times; for IR(%), tumor inhibition percentage: by tumor weight
Procedure: The anti-tumor effect of the combination of the compound of Example 2 and PD-L1 monoclonal antibody in CT26 mouse colon cancer cell subcutaneously transplanted tumor model was evaluated.
An appropriate amount of the compound of Example 2 was weighed into a centrifuge tube, and 5% NMP 95% PEG400 was added. The mixture was vortexed to a fully soluble solution with a concentration of 6 mg/mL, which was prepared before immediate use.
Recombinant anti-PD-L1 whole mouse monoclonal antibody (InVivoMAb anti-mouse PD-L1 (B7-H1), purchased from Bioxcell, Clone 10F.9G2, catalog number: BE0101, batch number: 720619F1) was diluted with PBS so that the concentration was 1 mg/mL, which was prepared before immediate use.
BALB/c mice, female, 7-8 weeks (the age of mice at the time of tumor cell inoculation), weight of 18.4-19.1 g, 9 mice in each group, purchased from Zhejiang Weitong Lihua Laboratory Animal Technology Co., Ltd., license number: SOCK (Zhejiang) 2019-0001.
CT26 mouse colon cancer cells were cultured in RPMI-1640 culture medium containing 10% fetal bovine serum, 100 U/mL penicillin and 100 μg/mL streptomycin. CT26 cells in the exponential growth phase were collected and resuspended in PBS to a suitable concentration for subcutaneous tumor inoculation in mice.
Female BALB/c mice were subcutaneously inoculated with 2.5×10^5 CT26 cells on the back. When the average tumor volume was about 127 mm^3, they were randomly grouped according to the size of the tumor. They were divided into 4 groups with each group of 9 animals, and the day of grouping was defined as day 0.
After tumor inoculation, routine monitoring included the effects of tumor growth and treatment on the normal behavior of animals. The specific content included the activity of the experimental animal, food and water consumption, weight gain or loss, abnormal conditions of eyes, coat and others. The tumor volume was weighed and measured twice a week. The administration period was 21 days. On the 21st day, the mice were weighed and the tumor volume was measured. The next day after the tumor volume was measured, the mice were sacrificed and tumor masses were taken and weighed. The tumor volume (TV), relative tumor volume (RTV), relative tumor growth rate (T/C), tumor inhibition percentage (IR) and relative tumor inhibition rate (TGI) were calculated, and statistical testing was performed. The calculation formulas were as follows:
(1) TV=1/2×a×b^2, where a and b represent the length and width of the tumor respectively;
(2) RTV=Vt/V0, where V0 is the tumor volume measured during administration in grouping (i.e. d0), and Vt is the tumor volume during each measurement;

recombinant human PI3Kδ = recombinant human PI3Kδ (Homo sapiens (Human), UniProt O00329); assay: Inhibitory activity on PI3K kinase (ADP-Glo Kinase Assay)
recombinant human PI3Kδ, sequence (O00329 whole entry): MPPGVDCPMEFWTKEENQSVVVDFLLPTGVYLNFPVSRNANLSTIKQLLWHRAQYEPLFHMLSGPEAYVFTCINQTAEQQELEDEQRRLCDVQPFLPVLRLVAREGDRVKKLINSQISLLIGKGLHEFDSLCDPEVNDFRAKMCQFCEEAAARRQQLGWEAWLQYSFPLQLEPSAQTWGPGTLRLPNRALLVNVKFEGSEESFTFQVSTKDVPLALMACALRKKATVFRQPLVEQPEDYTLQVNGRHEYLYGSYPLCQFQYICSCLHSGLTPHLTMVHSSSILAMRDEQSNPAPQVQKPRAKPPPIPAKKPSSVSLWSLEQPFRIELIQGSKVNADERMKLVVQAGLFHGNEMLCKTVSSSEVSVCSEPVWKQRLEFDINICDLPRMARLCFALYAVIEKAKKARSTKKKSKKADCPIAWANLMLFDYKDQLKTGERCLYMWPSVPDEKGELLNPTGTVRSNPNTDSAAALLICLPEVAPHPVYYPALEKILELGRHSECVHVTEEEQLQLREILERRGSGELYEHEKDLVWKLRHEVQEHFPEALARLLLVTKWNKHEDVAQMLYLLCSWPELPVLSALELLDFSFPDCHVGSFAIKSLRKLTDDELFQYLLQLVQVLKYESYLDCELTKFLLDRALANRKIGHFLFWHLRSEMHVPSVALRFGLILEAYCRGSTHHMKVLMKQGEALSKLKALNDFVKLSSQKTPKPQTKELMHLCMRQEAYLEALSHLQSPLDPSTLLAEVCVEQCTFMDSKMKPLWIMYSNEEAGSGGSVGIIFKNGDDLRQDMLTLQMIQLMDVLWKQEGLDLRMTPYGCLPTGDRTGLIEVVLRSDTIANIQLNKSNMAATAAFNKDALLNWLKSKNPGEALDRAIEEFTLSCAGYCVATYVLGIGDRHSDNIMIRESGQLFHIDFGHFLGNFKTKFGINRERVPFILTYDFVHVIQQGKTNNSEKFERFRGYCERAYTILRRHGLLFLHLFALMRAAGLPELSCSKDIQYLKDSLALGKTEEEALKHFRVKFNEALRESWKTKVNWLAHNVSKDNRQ
recombinant human PI3Kδ, sequence (P27986 whole entry partner): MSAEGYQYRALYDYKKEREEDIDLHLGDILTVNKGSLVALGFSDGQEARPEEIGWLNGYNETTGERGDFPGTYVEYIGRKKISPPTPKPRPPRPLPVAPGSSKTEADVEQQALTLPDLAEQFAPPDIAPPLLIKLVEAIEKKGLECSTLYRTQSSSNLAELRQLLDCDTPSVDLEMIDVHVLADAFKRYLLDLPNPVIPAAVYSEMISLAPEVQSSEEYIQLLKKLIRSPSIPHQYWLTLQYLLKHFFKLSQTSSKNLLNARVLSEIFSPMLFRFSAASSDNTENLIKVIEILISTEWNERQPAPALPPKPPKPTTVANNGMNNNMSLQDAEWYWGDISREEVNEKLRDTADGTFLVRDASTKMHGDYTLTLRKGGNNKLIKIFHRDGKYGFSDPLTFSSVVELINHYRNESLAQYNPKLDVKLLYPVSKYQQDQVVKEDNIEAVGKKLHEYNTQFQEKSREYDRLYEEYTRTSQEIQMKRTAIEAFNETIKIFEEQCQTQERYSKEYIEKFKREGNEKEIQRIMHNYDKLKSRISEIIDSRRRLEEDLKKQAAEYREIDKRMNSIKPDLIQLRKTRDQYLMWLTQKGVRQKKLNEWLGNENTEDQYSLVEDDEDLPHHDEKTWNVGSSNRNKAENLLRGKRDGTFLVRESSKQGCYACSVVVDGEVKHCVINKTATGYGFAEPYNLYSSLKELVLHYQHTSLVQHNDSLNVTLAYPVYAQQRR
Excerpt: The following method is used to determine the degree of inhibition of recombinant human PI3Kα, PI3Kβ, PI3Kγ and PI3Kδ kinase activity by the compounds of the present invention under in vitro conditions. Promega's ADP-Glo Kinase Assay Kit (Cat. No. V9102) was used in this method. The above kit was a luminescence kinase detection kit, which was used to detect the ADP content produced by the kinase reaction. The ADP content was positively correlated with the kinase activity. By measuring the ADP content, the inhibition of the compound on the activity of PI3Kα, PI3Kβ, PI3Kγ and PI3Kδ kinases was reflected. […] Recombinant human PI3Kα, PI3Kγ, and PI3Kδ were purchased from Invitrogen, and PI3Kβ was purchased from Promega (category numbers were PI3Kα: PV4788; PI3Kβ: V1751; PI3Kγ: PV4786 and PI3Kδ: PV6451 separately).

recombinant human PI3Kα = recombinant human PI3Kα (Homo sapiens (Human), UniProt P42336); assay: as above
recombinant human PI3Kα, sequence (P42336 whole entry): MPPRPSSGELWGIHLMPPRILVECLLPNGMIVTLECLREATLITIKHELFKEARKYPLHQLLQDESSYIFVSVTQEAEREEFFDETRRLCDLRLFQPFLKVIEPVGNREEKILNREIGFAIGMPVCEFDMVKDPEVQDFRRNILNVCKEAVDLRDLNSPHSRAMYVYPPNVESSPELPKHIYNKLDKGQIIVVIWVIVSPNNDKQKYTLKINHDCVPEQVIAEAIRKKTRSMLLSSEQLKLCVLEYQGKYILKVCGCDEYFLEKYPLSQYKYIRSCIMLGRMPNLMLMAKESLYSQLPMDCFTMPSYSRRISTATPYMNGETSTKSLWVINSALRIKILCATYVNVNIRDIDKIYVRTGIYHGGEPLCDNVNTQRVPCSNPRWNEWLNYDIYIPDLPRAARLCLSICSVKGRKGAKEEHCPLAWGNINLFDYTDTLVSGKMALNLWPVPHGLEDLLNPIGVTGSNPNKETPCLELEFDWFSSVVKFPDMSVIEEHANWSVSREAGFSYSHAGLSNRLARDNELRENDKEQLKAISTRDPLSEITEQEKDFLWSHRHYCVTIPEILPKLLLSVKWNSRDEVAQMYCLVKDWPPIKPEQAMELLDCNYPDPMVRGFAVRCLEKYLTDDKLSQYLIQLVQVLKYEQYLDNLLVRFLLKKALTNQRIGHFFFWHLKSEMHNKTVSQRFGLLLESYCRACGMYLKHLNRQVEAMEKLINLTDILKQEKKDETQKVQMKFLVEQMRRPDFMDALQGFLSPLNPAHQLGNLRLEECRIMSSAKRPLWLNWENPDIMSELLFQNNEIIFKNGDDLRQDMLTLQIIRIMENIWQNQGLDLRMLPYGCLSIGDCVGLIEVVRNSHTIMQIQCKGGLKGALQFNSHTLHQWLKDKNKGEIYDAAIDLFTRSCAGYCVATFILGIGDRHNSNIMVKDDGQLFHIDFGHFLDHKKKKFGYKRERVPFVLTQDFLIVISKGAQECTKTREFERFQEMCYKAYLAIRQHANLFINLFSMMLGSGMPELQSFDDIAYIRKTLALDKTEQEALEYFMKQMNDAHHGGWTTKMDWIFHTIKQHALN
recombinant human PI3Kα, sequence (P27986 whole entry partner): as the sequence (P27986 whole entry partner) above

recombinant human PI3Kγ = recombinant human PI3Kγ (Homo sapiens (Human), UniProt P48736); assay: as above; assay type: biochemical
recombinant human PI3Kγ, sequence (P48736 whole entry): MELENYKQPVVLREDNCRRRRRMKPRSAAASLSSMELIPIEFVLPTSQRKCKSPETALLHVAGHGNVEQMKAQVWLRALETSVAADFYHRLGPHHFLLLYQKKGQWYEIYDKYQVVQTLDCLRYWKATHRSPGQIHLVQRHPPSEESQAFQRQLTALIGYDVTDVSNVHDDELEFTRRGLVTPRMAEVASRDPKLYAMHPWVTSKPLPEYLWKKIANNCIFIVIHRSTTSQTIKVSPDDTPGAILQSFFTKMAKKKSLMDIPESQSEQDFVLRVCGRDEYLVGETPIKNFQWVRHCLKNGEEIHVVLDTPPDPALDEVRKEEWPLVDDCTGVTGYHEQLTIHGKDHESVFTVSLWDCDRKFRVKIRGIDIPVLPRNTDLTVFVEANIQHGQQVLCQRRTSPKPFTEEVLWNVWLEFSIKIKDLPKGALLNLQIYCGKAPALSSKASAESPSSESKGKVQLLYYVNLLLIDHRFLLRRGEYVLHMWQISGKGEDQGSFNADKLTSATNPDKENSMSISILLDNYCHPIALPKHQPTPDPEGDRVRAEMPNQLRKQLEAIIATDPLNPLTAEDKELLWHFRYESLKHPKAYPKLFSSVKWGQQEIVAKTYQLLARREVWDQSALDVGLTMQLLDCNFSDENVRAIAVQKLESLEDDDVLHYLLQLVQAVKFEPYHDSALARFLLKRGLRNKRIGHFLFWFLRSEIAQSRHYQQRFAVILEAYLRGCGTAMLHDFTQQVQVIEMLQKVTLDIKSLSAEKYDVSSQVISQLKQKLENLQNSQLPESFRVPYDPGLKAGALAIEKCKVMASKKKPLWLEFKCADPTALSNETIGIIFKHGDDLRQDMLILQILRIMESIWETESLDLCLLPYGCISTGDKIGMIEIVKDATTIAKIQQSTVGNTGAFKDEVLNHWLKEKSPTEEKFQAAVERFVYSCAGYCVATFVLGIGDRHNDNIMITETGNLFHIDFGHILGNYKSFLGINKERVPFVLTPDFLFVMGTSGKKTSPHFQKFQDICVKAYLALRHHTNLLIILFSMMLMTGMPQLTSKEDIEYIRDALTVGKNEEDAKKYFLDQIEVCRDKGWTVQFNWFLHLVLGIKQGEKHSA
Excerpt: The following method is used to determine the degree of inhibition of recombinant human PI3Kα, PI3Kβ, PI3Kγ and PI3Kδ kinase activity by the compounds of the present invention under in vitro conditions. Promega's ADP-Glo Kinase Assay Kit (Cat. No. V9102) was used in this method. The above kit was a luminescence kinase detection kit, which was used to detect the ADP content produced by the kinase reaction. The ADP content was positively correlated with the kinase activity. By measuring the ADP content, the inhibition of the compound on the activity of PI3Kα, PI3Kβ, PI3Kγ and PI3Kδ kinases was reflected. For detailed experimental operations, please refer to the kit instructions. Recombinant human PI3Kα, PI3Kγ, and PI3Kδ were purchased from Invitrogen, and PI3Kβ was purchased from Promega (category numbers were PI3Kα: PV4788; PI3Kβ: V1751; PI3Kγ: PV4786 and PI3Kδ: PV6451 separately).

[2] = Oral pharmacokinetics in ICR mice; assay type: in vivo; details: male, mouse, plasma, Oral (5 mg/kg)
Procedure: Using ICR mice as the test animals, the mice were intragastrically administrated with the compound of the present invention. LC/MS/MS method was used to determine the drug concentration in the plasma at different times to study the pharmacokinetic characteristics of the compound of the present invention in mice.
An appropriate amount of the compound to be tested was weighed, and 0.5% sodium carboxymethylcellulose (containing 0.05% Tween80) was added. The mixture was vortexed, and sonicated so that the solid was ultrasonically dispersed uniformly to obtain a suspension; 100 μL×2 of the preparation were aspirated, and placed in 1.5-mL EP tubes, stored at 2 to 8° C. The concentration of the preparation was 0.5 mg/mL.
Twenty-seven healthy adult ICR male mice were fasted overnight and then intragastrically administered (dosage of administration was 5 mg/kg), and fed 4 hours after administration.
At 0.083 hours, 0.25 hours, 0.5 hours, 1 hour, 2 hours, 4 hours, 8 hours, 12 hours, and 24 hours after administration, 80 μL of blood was collected from the orbital vein. About 0.08 mL of blood was collected, and placed in EDTA-K2 anticoagulation tube. […] The collected plasma was stored at −40 to −20° C. before analysis. The […] method was used to determine the content of the test compound in the plasma of ICR mice after intragastric administration of different compounds.

Which “RTV (x ± S), relative tumor volume” value [1] does the source give for `C[C@H](NC(=O)c1c(N)nn2cccnc12)c1nc2cccc(C#Cc3cnn(C4CC4)c3)c2c(=O)n1-c1ccccc1` [Example 2, (S)-2-amino-N-(1-(5-((1-cyclopropyl-1H-pyrazol-4-yl)ethynyl)-4-oxo-3-phenyl-3,4-dihydroquinazolin-2-yl)ethyl)pyrazolo[1,5-a]pyrimidine-3-carboxamide] here?
The value was 5.47 ± 1.05.

And the “TGI (%), relative tumor inhibition rate” value [1]?
Its value is 51.2%.

And the “Tumor weight (g) (x ± S)” value [1]?
Its value is 0.5942 ± 0.1730 g.

And the “TV (x ± S), tumor volume” value ([1]; in mm³ (unit assumed))?
Its value is 723.47 ± 159.50.

And the “IR(%), tumor inhibition percentage” value ([1]; listed as Compound of Example 2)?
Its value is 52.1%.

And the “IR(%), tumor inhibition percentage” value ([1]; listed as compound of Example 2)?
Its value is 52.1%.

What about the IC50 (recombinant human PI3Kδ) of the same compound?
The IC50 was 191 nM.

What about the IC50 (recombinant human PI3Kα) of the same compound?
The IC50 was 215 nM.

And the IC50 (recombinant human PI3Kγ; ADP-Glo, ATP 10 μM)?
Its IC50 is 0.58 nM.

And the “IC50 (PI3Kα)/IC50(PI3Kγ)” value (recombinant human PI3Kγ; kinase selectivity for PI3Kγ over PI3Kα)?
Its value is 370.

What about the “IC50 (PI3Kβ)/IC50(PI3Kγ)” value (recombinant human PI3Kγ; kinase selectivity for PI3Kγ over PI3Kβ) of the same compound?
Its value is 804.

And the “IC50 (PI3Kδ)/IC50(PI3Kγ)” value (recombinant human PI3Kγ; kinase selectivity for PI3Kγ over PI3Kδ)?
The value was 330.

What about the AUC(0-inf) ([2]; read-out: Area under the curve AUC0-∞) of the same compound?
The AUC(0-inf) was 15100 ng·h/mL.

And the bioavailability ([2]; read-out: Bioavailability F)?
The bioavailability was 60%.

And the half-life ([2]; read-out: Half-life period T½ (converted))?
Its half-life is 3.4 h.

What about the Cmax ([2]; read-out: Plasma concentration Cmax) of the same compound?
The Cmax was 1730 ng/mL.
